Active and inactive are the calls of the source.
Experiments:
[1] = viability of uninfected HEp-2 cells – cell-based, HTS, cytotoxicity control for RSV inhibitor project, dose response (AID 2410); assay type: functional; details: human respiratory syncytial virus
[2] = viability of HCT116 lacking mutant beta-catenin – cell-based, human colon tumor, dose response (AID 1045); assay type: functional;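 note: HCT116 colon tumor cells with beta catenin knocked out; cells exposed to compound for 60 hours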
[3] = viability of PTEN-deleted HCT116 cells – cell-based, HCT116 PTEN knockout, dose response (AID 1047); assay type: functional;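 note: HCT116 colon tumor cells with PTEN knocked out; cells exposed to compound for 60 hours before readout; potency for loss of cell viability measured by luminescence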
[4] = Trypanosoma cruzi growth suppression in host cells – NIH3T3 host cells, beta-gal luminescence, confirmation (AID 2044); assay type: functional, cell-based;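 note: intracellular parasites grown in NIH/3T3 mouse fibroblasts as host cells; luminescent beta-galactosidase reporter signal from transgenic T. cruzi replicating inside host cells; inhibitors lower the luminescence signal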
[5] = NIH3T3 cell viability loss – ATP luminescence, mouse fibroblasts, counter-screen, dose response (AID 2010); assay type: functional, cell-based;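 note: cells exposed to compound for about 90 hours before reading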
Cytochrome P450 2D6 = Cytochrome P450 2D6 (Homo sapiens, UniProt P10635);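 note: CYP2D6 member of a cytochrome P450 panel assay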
Sequence of Cytochrome P450 2D6 (P10635 whole entry): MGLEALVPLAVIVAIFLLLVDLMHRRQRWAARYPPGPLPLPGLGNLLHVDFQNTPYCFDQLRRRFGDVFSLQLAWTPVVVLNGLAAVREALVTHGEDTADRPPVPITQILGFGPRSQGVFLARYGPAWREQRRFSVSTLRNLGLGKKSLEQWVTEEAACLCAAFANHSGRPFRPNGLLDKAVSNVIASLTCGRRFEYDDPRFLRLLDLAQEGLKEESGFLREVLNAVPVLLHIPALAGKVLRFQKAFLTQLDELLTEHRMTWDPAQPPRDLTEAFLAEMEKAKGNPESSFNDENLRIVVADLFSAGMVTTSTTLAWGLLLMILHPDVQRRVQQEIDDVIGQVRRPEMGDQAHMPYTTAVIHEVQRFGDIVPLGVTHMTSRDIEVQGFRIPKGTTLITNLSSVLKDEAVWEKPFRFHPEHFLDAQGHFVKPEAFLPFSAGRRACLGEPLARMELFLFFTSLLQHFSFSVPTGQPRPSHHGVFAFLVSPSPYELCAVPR

Cytochrome P450 2C9 = Cytochrome P450 2C9 (Homo sapiens, UniProt P11712)
Sequence of Cytochrome P450 2C9 (P11712 whole entry): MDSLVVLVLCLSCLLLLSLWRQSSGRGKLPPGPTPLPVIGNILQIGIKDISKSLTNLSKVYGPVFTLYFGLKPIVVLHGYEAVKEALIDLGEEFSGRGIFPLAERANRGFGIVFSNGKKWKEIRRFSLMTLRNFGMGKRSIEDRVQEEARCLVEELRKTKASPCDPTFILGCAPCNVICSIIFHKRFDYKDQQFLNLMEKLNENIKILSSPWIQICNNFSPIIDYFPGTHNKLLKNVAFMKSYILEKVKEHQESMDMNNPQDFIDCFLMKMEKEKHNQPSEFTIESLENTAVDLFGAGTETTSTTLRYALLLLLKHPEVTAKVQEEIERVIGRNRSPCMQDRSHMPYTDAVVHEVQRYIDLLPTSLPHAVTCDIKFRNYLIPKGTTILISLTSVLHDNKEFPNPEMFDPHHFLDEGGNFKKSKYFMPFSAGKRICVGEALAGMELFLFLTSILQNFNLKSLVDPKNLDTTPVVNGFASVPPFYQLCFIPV

H4 = assay: Luminescence Cell-Based Dose Response HTS to Identify Activators of 5'UTR Stem-Loop Driven Prion Protein mRNA Translation in H4 Neuroglioblastoma Cells. [Related pubchem assays: 1829 (Project Summary), 1814 (Primary HTS)]; assay type: functional; details: Homo sapiens
[6] = target: T1, Heat shock factor protein 1 (Mus musculus, UniProt P38532); assay: decrease of HSF1-responsive luciferase luminescence – cell-based, NIH3T3, dose retest, confirmation (AID 2382); assay type: functional;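 note: NIH3T3 fibroblasts with HSF1-driven luciferase reporter stressed by proteasome inhibitor MG132; luminescence from HSF1-driven luciferase expression after 8 hours of MG132 stress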
T1 sequence (P38532 whole entry): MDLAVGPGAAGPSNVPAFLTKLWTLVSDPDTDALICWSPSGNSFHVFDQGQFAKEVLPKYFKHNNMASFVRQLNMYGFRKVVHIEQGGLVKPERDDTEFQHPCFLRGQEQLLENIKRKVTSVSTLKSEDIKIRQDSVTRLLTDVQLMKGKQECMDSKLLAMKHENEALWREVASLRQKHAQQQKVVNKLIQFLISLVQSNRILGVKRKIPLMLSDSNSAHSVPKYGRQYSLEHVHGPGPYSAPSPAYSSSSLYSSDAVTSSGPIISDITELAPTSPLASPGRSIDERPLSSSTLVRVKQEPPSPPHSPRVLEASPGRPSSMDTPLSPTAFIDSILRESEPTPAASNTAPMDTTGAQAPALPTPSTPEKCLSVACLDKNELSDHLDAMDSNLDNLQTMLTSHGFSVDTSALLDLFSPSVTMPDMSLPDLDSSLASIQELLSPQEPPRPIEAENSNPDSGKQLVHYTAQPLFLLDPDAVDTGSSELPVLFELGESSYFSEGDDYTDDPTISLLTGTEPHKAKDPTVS

cells = assay type: functional
Paired box protein Pax-8 = Paired box protein Pax-8 (Homo sapiens, UniProt Q06710); assay: PAX8 transcriptional activity inhibition in RMG-I – RMG-I cells, luciferase, cherry-pick, dose response (AID 687027); assay type: functional, cell-based;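 note: luciferase reporter driven by Pax8 target thyroperoxidase promoter measured by SteadyGlo luminescence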
Sequence of Paired box protein Pax-8 (Q06710 whole entry): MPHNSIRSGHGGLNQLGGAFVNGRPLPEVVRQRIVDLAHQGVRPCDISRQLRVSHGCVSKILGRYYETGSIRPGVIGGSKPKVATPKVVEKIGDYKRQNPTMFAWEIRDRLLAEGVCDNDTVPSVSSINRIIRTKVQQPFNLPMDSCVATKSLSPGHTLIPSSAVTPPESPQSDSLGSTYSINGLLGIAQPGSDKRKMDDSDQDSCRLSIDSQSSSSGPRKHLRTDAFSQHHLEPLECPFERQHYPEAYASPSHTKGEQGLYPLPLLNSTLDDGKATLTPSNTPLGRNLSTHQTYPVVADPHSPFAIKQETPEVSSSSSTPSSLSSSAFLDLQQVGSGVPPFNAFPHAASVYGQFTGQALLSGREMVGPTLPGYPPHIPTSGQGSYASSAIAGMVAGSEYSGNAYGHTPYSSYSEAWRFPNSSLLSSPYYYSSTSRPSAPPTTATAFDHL

Cytochrome P450 2C19 = Cytochrome P450 2C19 (Homo sapiens, UniProt P33261); assay: Cytochrome panel assay with activity outcomes. Panel member name: p450-cyp2c19 Compounds with AC50 equal or less than 10 uM are considered active; assay type: functional
Sequence of Cytochrome P450 2C19 (P33261 whole entry): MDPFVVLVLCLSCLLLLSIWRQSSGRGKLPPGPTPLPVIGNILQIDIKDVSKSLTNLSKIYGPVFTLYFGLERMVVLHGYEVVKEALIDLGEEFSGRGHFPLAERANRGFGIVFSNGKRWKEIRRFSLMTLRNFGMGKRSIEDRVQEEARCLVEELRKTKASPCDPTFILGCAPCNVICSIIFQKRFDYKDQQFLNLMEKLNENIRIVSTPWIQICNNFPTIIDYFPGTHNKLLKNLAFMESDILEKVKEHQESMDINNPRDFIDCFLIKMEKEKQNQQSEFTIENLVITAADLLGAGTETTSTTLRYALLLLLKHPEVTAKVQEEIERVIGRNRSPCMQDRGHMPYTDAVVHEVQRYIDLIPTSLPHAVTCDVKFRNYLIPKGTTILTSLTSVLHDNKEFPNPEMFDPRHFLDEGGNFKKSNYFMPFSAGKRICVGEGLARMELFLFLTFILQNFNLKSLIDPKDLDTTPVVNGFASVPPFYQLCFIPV

[7] = target: T2, Corticotropin-releasing factor receptor 2/Corticotropin-releasing factor-binding protein (Homo sapiens, UniProt P24387+Q13324); assay: activators of CRF receptor 2 with binding protein – uHTS hits, confirmation (AID 602473); assay type: functional; details: read-out: EC50_Mean
T2 sequence (Q13324 whole entry): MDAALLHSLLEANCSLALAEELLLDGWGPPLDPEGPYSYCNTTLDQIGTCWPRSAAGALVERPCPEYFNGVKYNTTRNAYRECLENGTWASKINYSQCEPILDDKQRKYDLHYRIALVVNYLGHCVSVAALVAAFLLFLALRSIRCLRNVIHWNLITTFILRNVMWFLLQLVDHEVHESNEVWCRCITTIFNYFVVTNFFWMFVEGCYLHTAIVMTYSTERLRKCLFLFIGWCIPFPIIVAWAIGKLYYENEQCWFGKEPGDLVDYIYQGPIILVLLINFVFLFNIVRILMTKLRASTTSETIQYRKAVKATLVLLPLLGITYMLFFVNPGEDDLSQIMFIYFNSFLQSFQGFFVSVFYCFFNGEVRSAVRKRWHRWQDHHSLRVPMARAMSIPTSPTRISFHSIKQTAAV
T2 sequence (P24387 whole entry): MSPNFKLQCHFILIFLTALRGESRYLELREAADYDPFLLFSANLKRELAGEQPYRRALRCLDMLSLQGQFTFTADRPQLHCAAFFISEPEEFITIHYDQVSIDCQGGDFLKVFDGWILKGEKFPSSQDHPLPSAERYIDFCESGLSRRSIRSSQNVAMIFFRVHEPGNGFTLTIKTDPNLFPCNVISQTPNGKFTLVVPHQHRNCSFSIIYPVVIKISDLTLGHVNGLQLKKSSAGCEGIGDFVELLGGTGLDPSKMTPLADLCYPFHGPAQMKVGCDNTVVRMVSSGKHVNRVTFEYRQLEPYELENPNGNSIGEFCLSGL

[8] = target: T2, Corticotropin-releasing factor receptor 2/Corticotropin-releasing factor-binding protein; assay: Dose Response confirmation of uHTS hits for small molecule antagonists of the CRF-binding protein and CRF-R2 receptor complex.; assay type: functional; details: read-out: IC50_Mean
[9] = Luminescence Cell-Based Dose Response HTS to Identify Inhibitors of 5'UTR Stem-Loop Driven Prion Protein mRNA Translation in H4 Neuroglioblastoma Cells. [Related pubchem assays: 1827 (Project Summary), 1813 (Primary HTS)]; assay type: functional
[10] = luciferase reporter signal suppression in cells – H4 neuroglioma cells, luminescence, dose response (AID 1990); assay type: functional, cell-based
[11] = alpha-synuclein stem-loop luciferase translation blockers – H4 neuroglioma cells, luminescence, confirmation (AID 1988); assay type: functional, cell-based
[12] = NIH-3T3 fibroblast cytotoxicity, dose response, cytotoxicity control, cell-based, fluorescence, Alamar Blue, secondary assay (AID 2327); assay type: functional;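 note: NIH-3T3 mouse fibroblasts cultured with fluconazole at 8 µg/mL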

With `CCn1c2ccccc2c2cc(NC(=O)c3ccco3)ccc21` the CC50 [1] was 16.2 µM (active).

For `Cc1ccc(S(=O)(=O)N(CC(=O)Nc2ccc(Cl)c([N+](=O)[O-])c2)C2CCCCC2)cc1`, the EC50 [2] was 19 µM (active), the EC50 [3] was 16.2 µM (active) and the EC50 [4] was 3.08 µM (active). The EC50 [5] was > 60 µM (not active).

In the case of `CCOC(=O)C[C@@H](C(=O)OCC)[C@@H]1CCCCC1=O`, the AC50 (Cytochrome P450 2D6) is reported as 6.31 µM (inconclusive).

With `COC(=O)c1nn(-c2ccccc2)c(=O)cc1Oc1ccccc1` the AC50 (Cytochrome P450 2C9) was 11.2 µM (inconclusive).

In the case of `CCCOc1ccc2c3c(c(=O)oc2c1)CCCC3`, the CC50 [1] is reported as > 50 µM (active).

With `CCSc1nc2c(c(-c3ccc(C)o3)c1C#N)CCCC2` the CC50 [1] was 37.5 µM (active).

In the case of `Cc1cc(C(=O)COC(=O)C2=COCCO2)c(C)n1-c1cccc(F)c1`, the EC50 (H4) is reported as 0.887 µM (active).

For `Cc1ccccc1-c1cncnc1N(C)Cc1ccco1`, the AC50 (Cytochrome P450 2D6) was 20 µM (inconclusive).

For `CCOc1nc(C)ccc1-c1noc(-c2cccnc2)n1`, the EC50 [6] was > 195 µM (not active).

With `Cc1cc(Br)c2[nH]cc(CCNC(=O)c3ccco3)c2c1` the EC50 [6] was > 195 µM (not active).

With `O=S(=O)(/C=C/c1ccccc1)N1CCC(c2nc(O)c3nnn(Cc4ccccc4)c3n2)CC1` the CC50 [1] was 27.7 µM (active).

With `CCC(C)NC(=O)C1(C)CCC(=O)N1Cc1ccccc1OC` (centres undefined) the EC50 [6] was > 195 µM (not active).

With `Cc1nn(-c2nc3ccccc3s2)c(N)c1Sc1ccc(F)cc1` the EC50 [2] was 19.6 µM (active) and the EC50 [3] was 15.5 µM (active).

With `Cc1ccc(S(=O)(=O)N2CCC(C(=O)OCc3ccccc3)CC2)cc1C` the IC50 (cells) was 18.6 µM (active).

In the case of `CC(C)OC(=O)c1cc2ccccc2oc1=O`, the AC50 (Cytochrome P450 2C9) is reported as 10 µM (inconclusive).

In the case of `CC1CCC(NC(=O)c2ccc3c(c2)S(=O)(=O)c2ccccc2C3=O)CC1` (centres undefined), the CC50 [1] is reported as > 50 µM (active).

For `CCOC(=O)c1cnc2ccc(C(=O)OC)cc2c1Nc1ccc(C(=O)O)cc1`, the AC50 (Paired box protein Pax-8) was 66.4 µM (active).

With `CCSc1nnc(-c2ccccc2NC(C)=O)c(O)n1` the AC50 (Cytochrome P450 2C19) was “inconclusive” and the AC50 (Cytochrome P450 2C9) was 31.6 µM (inconclusive).

In the case of `CN(c1ccccc1)P(=O)(N1CC1)N1CC1`, the EC50 [7] is reported as > 53 µM (inactive) and the IC50 [8] is reported as > 47.1 µM (inactive).

For `COc1ccc2c3c([nH]c2c1)[C@@H](CO)N(C(=O)Nc1cccc(F)c1)CC31CCN(S(=O)(=O)c2cccc(C)c2)CC1`, the AC50 (Paired box protein Pax-8) was 6 µM (active).

For `O=S(=O)(c1ccccc1F)N1CC[C@@H]2[C@H](CO)Nc3ccc(C4=CCCCC4)cc3[C@@H]21`, the AC50 (Paired box protein Pax-8) was 28.2 µM (active).

In the case of `C[C@@H]1CN([C@@H](C)CO)C(=O)Cc2cc(NC(=O)Nc3ccc(C(F)(F)F)cc3)ccc2O[C@H]1CN(C)Cc1ccc(Cl)c(Cl)c1`, the AC50 (Paired box protein Pax-8) is reported as 11.1 µM (active).

In the case of `C=CCn1c(COc2ccccc2)nnc1SCC(=O)N/N=C/c1ccc(C)cc1`, the AC50 (Cytochrome P450 2C19; read-out: AC50) is reported as 15.8 µM (inconclusive) and the AC50 (Cytochrome P450 2D6) is reported as 39.8 µM (inconclusive).

With `CC(=O)N(/N=C/c1cccc(C)c1)c1nc(-c2ccc(Br)cc2)cs1` the AC50 (Cytochrome P450 2C19; read-out: AC50) was 0.0708 µM (inconclusive) and the AC50 (Cytochrome P450 2C9) was 1.12 µM (inconclusive).

For `Cc1cc(C(C)(C)C)ccc1OCC(=O)N/N=C\c1c(C)n(C)n(-c2ccccc2)c1=O`, the EC50 [6] was > 195 µM (not active).

In the case of `COc1ccc(O)c(/C=N/NC(=O)c2ccc(N3CCCC3=O)cc2)c1`, the EC50 [9] is reported as 16.3 µM (active), the EC50 [10] is reported as 14.8 µM (active) and the AC50 (Paired box protein Pax-8) is reported as < 0.26 µM (active). The EC50 [11] was 12.5 µM (active) and the EC50 [12] was > 160 µM (inactive).

For `O=S1(=O)OC(c2ccc(O)cc2)(c2ccc(O)cc2)c2ccccc21` [PHENOLSULFONPHTHALEIN], the AC50 (Cytochrome P450 2C9) was 6.31 µM (inconclusive).
